Reference: US7341850B2, “Human LXRα variants” (Wyeth, priority 2003, dated 2008)

B1: LXRα-64: human LXRα splice variant with an extra 64 amino acids in its ligand binding domain (SEQ ID NO:4) (protein, listed as Homo sapiens)
chain: MSLWLGAPVPDIPPDSAVELWKPGAQDASSQAQGGSSCILREEARMPHSAGGTAGVGLEAAEPTALLTRAEPPSEPTEIRPQKRKKGPAPKMLGNELCSVCGDKASGFHYNVLSCEGCKGFFRRSVIKGAHYICHSGGHCPMDTYMRRKCQECRLRKCRQAGMREECVLSEEQIRLKKLKRQEEEQAHATSLPPRRSSPPQILPQLSPEQLGMIEKLVAAQQQCNRRSFSDRLRVTPWPMAPDPHSREARQQRFAHFTELAIVSVQEIVDFAKQLPGFLQLSREDQIALLKTSAIEVAGEGQGMKGEAEWDYLWEGPPDIELGEPNLLGSRDEENRPPWKRPCSKTSPPSPRLRFAACVQVMLLETSRRYNPGSESITFLKDFSYNREDFAKAGLQVEFINPIFEFSRAMNELQLNDAEFALLIAISIFSADRPNVQDQLQVERLQHTYVEALHAYVSIHHPHDRLMFPRMLMKLVSLRTLSSVHSEQVFALRLQDKKLPPLLSEIWDVHE

Legend:
LXRα-64 mRNA = assay: Regulation of LXRα-64 mRNA expression in differentiated THP-1 cells (real-time RT-PCR); assay type: cell-based, human; conditions: THP-1 cells differentiated with 150 nM phorbol ester for 3 days; 10 μM T0901317, 10 μM GW 3965, 10 μM Ciglitazone or 1 μM 9RA; vs vehicle; FIG. 8A
Description: Experiments were performed to determine whether agonists of wild type LXRα could also regulate the expression of LXRα variants. In these experiments, THP-1 cells were obtained from the American Type Culture Collection (ATCC) and cultured in RPMI medium containing 10% fetal bovine serum (FBS). For gene expression analysis in differentiated THP-1 cells, the THP1 cells were incubated in RPMI medium supplemented with 10% lipoprotein-deficient serum (LPDS) (Intracel Corp, Rockville, Md.) and treated with 150 nM phorbol ester for 3 days followed by treatment with LXR, RXR, or Peroxisome Proliferator-activated Receptor γ (PPARγ) agonist compounds, specifically with vehicle only (control), 10 μM T0901317, 10 μM GW 3965, 10 μM Ciglitazone, or 1 μM 9RA.

LXRα-42 mRNA = assay: Regulation of LXRα-42 mRNA expression in differentiated THP-1 cells (real-time RT-PCR); assay type: cell-based, human; conditions: THP-1 cells differentiated with 150 nM phorbol ester for 3 days; 10 μM T0901317, 10 μM GW 3965, 10 μM Ciglitazone or 1 μM 9RA; vs vehicle; FIG. 8B
Description: Each amplification mixture (50 μL) contained 50 ng of cDNA, 400 nM forward primer (SEQ ID NO:11), 400 nM reverse primer (SEQ ID NO:12), 200 nM dual-labeled fluorogenic probe (SEQ ID NO:13) (Applied Biosystems), 5.5 mM MgCl2, and 1.25 units Gold Taq (Applied Biosystems). The primers amplify a portion of the LXRα sequences that is about 80 nucleotides in length. The PCR thermocycling parameters were 95° C. for 10 minutes, and 40 cycles at 95° C. for 15 seconds, and 60° C. for 1 minute. Together with the samples and no-template controls, a serially diluted cDNA standard was analyzed in parallel. All samples were analyzed for human glyceraldehyde-3-phosphate dehydrogenase (GAPDH) expression in parallel in the same run using probe and primers from predeveloped assays for GAPDH (Applied Biosystems). All of the target gene expression was normalized to the expression of GAPDH. Quantitative analysis was performed using the threshold procedure, following the manufacturer's protocol (Perkin-Elmer), and relative amounts were calculated from the standard curve.
Experiments were performed to determine whether agonists of wild type LXRα could also regulate the expression of LXRα variants. In these experiments, THP-1 cells were obtained from the American Type Culture Collection (ATCC) and cultured in RPMI medium containing 10% fetal bovine serum (FBS). For gene expression analysis in differentiated THP-1 cells, the THP1 cells were incubated in RPMI medium supplemented with 10% lipoprotein-deficient serum (LPDS) (Intracel Corp, Rockville, Md.) and treated with 150 nM phorbol ester for 3 days followed by treatment with LXR, RXR, or Peroxisome Proliferator-activated Receptor γ (PPARγ) agonist compounds, specifically with vehicle only (control), 10 μM T0901317, 10 μM GW 3965, 10 μM Ciglitazone, or 1 μM 9RA. The primers and TaqMan probe for the real-time RT-PCR was described as in Example 4.

[1] = tested on: pGL3-LXRα-Luc reporter (LXR response element of LXRα promoter); assay: LXRα promoter (LXRE) luciferase reporter gene assay in transfected HEK 293 cells; assay type: cell-based, human; conditions: variant co-transfected with hRXRα and reporter, 10 μM T0901317, 24 hours, compared with co-transfected native LXRα, FIG. 9
From the text: Human LXRα promoter (SEQ ID NO:14) was amplified by PCR using information from the published LXRα genomic structure and sequence (GenBank accession no. AC090589. A fragment spanning from -2660 to -2363 (relative to the transcription start site from exon 1) of LXRα promoter which contains the LXR response element ([NT] ID NO:20) ([…] et al. 2001, Mol. Cell. Biol. 21, 7558-7568 and Whitney et al., 2001, J. Biol. Chem. 276, 43509-43515) of LXRα was subcloned into pGL3 basic plasmid to create pGL-3-LXRα-Luc. The GenBank accession number of the LXRα “native” sequence used as a reference for the experiments and analysis disclosed herein is Genbank accession number for human LXRα is BC008819. Coding regions of human LXRα, and RXRα (GenBank accession number BC007925) were amplified by RT-PCR according to the sequences in GenBank and subcloned into pCMV/myc/nuc expression vectors (Invitrogen, Carlsbad, Calif.). The new LXRα-[…] coding region was subcloned into pCMV/myc/nuc expression vectors. HEK 293 cells were grown in Dulbecco's modified Eagle's medium (DMEM) containing 10% FBS. Transfections were performed in triplicate in 24 well plates using Lipofectamine 2000 (Invitrogen). […] The cells were harvested, analyzed, and the extracts were assayed for luciferase and β-galactosidase activity in a microplate luminometer/photometer reader (Lucy-1; Anthos, Salzburg, Austria). […]

[2] = tested on: SREBP-c1 (an LXR target gene); assay: SREBP-1C expression in transfected HEK 293 cells (real-time quantitative PCR); assay type: cell-based; conditions: cotransfected with human RXRα, TO901317 and/or 9RA, 48 hours, compared to wild type LXRα with RXRα or empty vector with RXRα, FIG. 11
Description: (§1) In these experiments, coding regions of human LXRα, RXRα, and the LXRα variant (LXRα-64) were amplified by RT-PCR. The PCR products were subcloned into pCMV/myc/nuc expression vectors (Invitrogen, Carlsbad, Calif.) and used in the experiments described infra.
(§2) Expression experiments were conducted in HEK 293 cells that were propagated in Dulbecco's modified Eagle's medium (DMEM) containing 10% FBS. The cultured cells were transfected with either the expression vector containing a sequence encoding LXRα (wild type) or an expression vector encoding LXRα-64. All samples were co-transfected with an expression vector encoding an RXRα sequence. Transfections were performed in triplicate in 24 well plates using the Lipofectamine 2000 (Invitrogen, Carlsbad, Calif.). Each well was transfected with 200 ng of the LXRα expression vector (LXRα), the LXRα-64 expression vector (L64), or control plasmid (pCMV) along with 200 ng of human RXRα expression vector (RXRα). Additions to each well were adjusted to contain constant amounts of DNA and of pCMV expression vector. […] The levels of gene expression were determined with Real-time quantitative PCR assays using an Applied Biosystems 7700 sequence detector.

ABCA1 = ABCA1 expression in transfected HEK 293 cells (real-time quantitative PCR); assay type: cell-based, human; conditions: cotransfected with RXRα, FIG. 12
Description: as §1, §2

| Molecule | expression of LXRα-64 mRNA (LXRα-64 mRNA) | expression of LXRα-42 mRNA (LXRα-42 mRNA) | LXR ligand-dependent activation of reporter gene [1] | basal, LXR ligand-dependent, and LXR+RXR ligand-dependent induction of SREBP-c1 expression [2] | LXR as well as LXR+RXR-ligand dependent induction of ABCA1 expression (ABCA1; TO901317 and/or 9RA, 48 hours, compared to native LXRα and RXRα or empty vector with RXRα) | basal expression of ABCA1 (ABCA1; no ligand) |
| --- | --- | --- | --- | --- | --- | --- |
| CC1=C(/C=C/C(C)=C\C=C\C(C)=C\C(=O)O)C(C)(C)CCC1 [9-cis retinoic acid] | increased | increased |  |  |  |  |
| O=C(O)Cc1cccc(OCCCN(Cc2cccc(C(F)(F)F)c2Cl)CC(c2ccccc2)c2ccccc2)c1 [GW3965, 3-(3-(2-chloro-3-trifluoromethylbenzyl-2,2-diphenylethylamino)propoxy)phenylacetic acid] | increased | increased |  |  |  |  |
| O=S(=O)(c1ccccc1)N(CC(F)(F)F)c1ccc(C(O)(C(F)(F)F)C(F)(F)F)cc1 [T0901317, N-(2,2,2,-trifluoro-ethyl)-n-[4-(2,2,2,-trifluoro-1-hydroxy-1-trifluoromethyl-ethyl)-phenyl]-benzenesulfonamide] | increased | increased |  |  |  |  |
| B1 |  |  | sharply decreased | sharply decreased | less | not affected |
